Data published in US9884857B2, “Salts of dasatinib in amorphous form” (BASF SE, priority 2013, dated 2018).

How the values were obtained:
[1] = 11 months of storage at room temperature (Example 1: closed glass vial)
Description: Powder X-Ray Diffraction:
The measurements are carried out with a Bruker D8 Advance powder X-ray diffractometer using Cu Kα radiation in the Bragg-Brentano reflection geometry. Generally, the 2θ values are accurate within an error of ±0.1-0.2°. The relative peak intensities can vary considerably for different samples of the same crystalline form because of different preferred orientations of the crystals. The samples are prepared without any special treatment other than the application of slight pressure to get a flat surface. Generally, silicon single crystal sample holders of 0.1 mm, 0.5 mm or 1.0 mm depth are used. The tube voltage and current are 40 kV and 40 mA, respectively. The X-ray diffractometer is equipped with a LynxEye detector. A variable divergence slight is used with a 3° window. The step size is 0.02° 2θ with a step time of 37 seconds. The samples are rotated at 0.5 rps during the measurement.

[2] = heating rate 10° C. per minute, dried sample
Description: Differential scanning calorimetry: DSC is carried out with a TA Instruments DSC Q2000 using hermetically sealed gold sample pans. The heating rate is 10° C. per minute. Samples are dried under nitrogen before sample pans are closed under nitrogen.

[3] = after two hours equilibration at 25° C.; resulting pH value 4.6
Description: Solubility Determinations:
Solubility determinations are carried out in pure water at 25±2° C. Suspensions with about 10 mg salt in 0.5 mL water are prepared and equilibrated for two hours before the solution phase is filtered off and tested by HPLC.
HPLC is carried out on an Agilent 1100 HPLC chromatograph equipped with a UV-vis detection unit. […] The column type used is a Waters XTerra MS C18, 250×4.6 mm, 5 μm (FK-CC14). The method as referenced above is an isocratic method using an aqueous ammonium acetate/acetic acid and methanol with a ratio of 55/45. The applied flow rate is 1.0 mL per minute, the injection volume is 20 microliter and the detection wavelength is 321 nm.

Cc1nc(Nc2ncc(C(=O)Nc3c(C)cccc3Cl)s2)cc(N2CCN(CCO)CC2)n1.O=C(O)CCCC(=O)O [Example 2, Dasatinib glutarate]
crystalline material by powder X-ray diffraction after storage [1]: no crystalline material is present

Cc1nc(Nc2ncc(C(=O)Nc3c(C)cccc3Cl)s2)cc(N2CCN(CCO)CC2)n1.O=C1NS(=O)(=O)c2ccccc21 [Example 1, Dasatinib saccharinate]
crystalline material by powder X-ray diffraction after storage [1]: no crystalline material was present
glass transition (DSC step) [2]: ~130 °C
aqueous solubility [3]: 1330 µg/mL

Cc1nc(Nc2ncc(C(=O)Nc3c(C)cccc3Cl)s2)cc(N2CCN(CCO)CC2)n1.O=C1NS(=O)(=O)c2ccccc21 [Example 4, Dasatinib saccharinate]
glass transition (DSC step) [2]: about 113 °C

Cc1nc(Nc2ncc(C(=O)Nc3c(C)cccc3Cl)s2)cc(N2CCN(CCO)CC2)n1.O=C(O)c1cccnc1 [Example 3, Dasatinib nicotinate]
crystalline material by powder X-ray diffraction after storage [1]: no crystalline material is present
